pEC50: −log10 of the molar value. Active and inactive are the calls of the source. The calls are words filed in the database; no cut-off is given here.
How the values were obtained:
[1] = target: T1, Bile acid receptor (Homo sapiens) (UniProt Q96RI1); assay: Agonist activity at human FXR (247 to 467 residues) expressed in HEK293 cells at 100 uM incubated for 8 hrs by luciferase assay; assay type: cell-based
T1 sequence (whole entry): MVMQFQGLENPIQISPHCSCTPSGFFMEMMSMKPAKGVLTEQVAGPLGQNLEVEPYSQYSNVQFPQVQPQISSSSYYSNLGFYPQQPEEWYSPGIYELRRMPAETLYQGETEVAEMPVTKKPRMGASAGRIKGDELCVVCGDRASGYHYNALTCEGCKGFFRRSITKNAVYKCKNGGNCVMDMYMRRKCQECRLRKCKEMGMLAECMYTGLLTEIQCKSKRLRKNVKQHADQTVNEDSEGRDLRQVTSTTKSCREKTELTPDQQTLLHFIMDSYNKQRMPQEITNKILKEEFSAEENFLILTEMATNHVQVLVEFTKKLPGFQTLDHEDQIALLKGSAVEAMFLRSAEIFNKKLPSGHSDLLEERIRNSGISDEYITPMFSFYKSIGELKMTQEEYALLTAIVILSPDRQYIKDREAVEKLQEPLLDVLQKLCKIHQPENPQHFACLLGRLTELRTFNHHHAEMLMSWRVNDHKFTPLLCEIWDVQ

[2] = target: T2, G-protein coupled bile acid receptor 1 (Homo sapiens, UniProt Q8TDU6); assay: Agonist activity at N-terminal HA-tagged human TGR5 expressed in HEK293 cells assessed as […] in intracellular cAMP levels incubated for 30 mins by Lance Ultra cAMP assay; assay type: functional, cell-based
T2 sequence (Q8TDU6 whole entry): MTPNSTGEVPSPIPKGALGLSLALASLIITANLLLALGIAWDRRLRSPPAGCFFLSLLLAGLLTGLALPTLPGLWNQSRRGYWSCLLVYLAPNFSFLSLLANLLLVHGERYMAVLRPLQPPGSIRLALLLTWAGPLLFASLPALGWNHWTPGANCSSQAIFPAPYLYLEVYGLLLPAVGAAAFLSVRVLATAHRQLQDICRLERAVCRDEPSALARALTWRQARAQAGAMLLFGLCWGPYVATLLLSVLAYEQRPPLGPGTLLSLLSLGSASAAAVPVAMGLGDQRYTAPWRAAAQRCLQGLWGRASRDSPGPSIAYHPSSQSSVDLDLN

[3] = target: T3, G-protein coupled bile acid receptor 1 (Homo sapiens) (UniProt Q8TDU6); assay: Agonist activity at N-terminal HA-tagged human TGR5 expressed in HEK293 cells assessed as […] in intracellular cAMP levels incubated for 30 mins by Lance Ultra cAMP assay relative to control; assay type: functional, cell-based; details: filed as agonist
T3 sequence (whole entry): T2 sequence (Q8TDU6 whole entry)

[4] = target: T4, G-protein coupled bile acid receptor 1 (Mus musculus) (UniProt Q80SS6); assay: Agonist activity at N-terminal HA-tagged mouse TGR5 expressed in HEK293 cells assessed as […] in intracellular cAMP levels incubated for 30 mins by Lance Ultra cAMP assay relative to control; assay type: functional, cell-based; details: filed as agonist
T4 sequence (whole entry): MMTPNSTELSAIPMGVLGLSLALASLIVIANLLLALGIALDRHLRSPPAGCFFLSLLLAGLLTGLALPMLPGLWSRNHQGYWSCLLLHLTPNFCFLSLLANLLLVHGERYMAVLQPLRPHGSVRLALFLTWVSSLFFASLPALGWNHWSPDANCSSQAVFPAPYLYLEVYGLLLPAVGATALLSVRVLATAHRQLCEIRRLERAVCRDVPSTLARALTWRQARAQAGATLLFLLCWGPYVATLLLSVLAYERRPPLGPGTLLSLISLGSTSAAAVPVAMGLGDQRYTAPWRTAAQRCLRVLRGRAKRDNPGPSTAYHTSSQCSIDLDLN

HEK293 = assay: Agonist activity at N-terminal HA-tagged dog TGR5 expressed in HEK293 cells assessed as […] in intracellular cAMP levels incubated for 30 mins by Lance Ultra cAMP assay relative to control; assay type: cell-based; details: Canis lupus familiaris, filed as agonist

Structure (SMILES)	Activity [1]	pEC50 [2]	Emax [3] [%]	Activity [4]	Activity (HEK293)
CC(C)[C@@H]1CC[C@]2(C(=O)O)CC[C@]3(C)[C@H](CC[C@@H]4[C@@]5(C)CC[C@@H](OC(=O)Nc6cc[nH]n6)C(C)(C)[C@@H]5CC[C@]43C)[C@@H]12	inactive	6.76	94	–	–
CC(C)[C@@H]1CC[C@]2(NC(=O)OCC(=O)O)CC[C@]3(C)[C@H](CC[C@@H]4[C@@]5(C)CC[C@@H](OC(=O)NC6CC6)C(C)(C)[C@@H]5CC[C@]43C)[C@@H]12	inactive	6.57	98	–	–
C[C@H](CCC(=O)O)[C@H]1CC[C@H]2[C@@H]3[C@H](O)C[C@@H]4C[C@H](O)CC[C@]4(C)[C@H]3C[C@H](O)[C@]12C	–	–	–	Active	Active
COc1ccc(NC(=O)O[C@@H]2CC[C@]3(C)[C@H]4CC[C@@H]5[C@H]6[C@H](C(C)C)CC[C@]6(C(=O)O)CC[C@@]5(C)[C@]4(C)CC[C@H]3C2(C)C)cc1	inactive	6.64	91	–	–
CC(C)[C@@H]1CC[C@]2(C(=O)O)CC[C@]3(C)[C@H](CC[C@@H]4[C@@]5(C)CC[C@@H](OC(=O)Nc6ccc(F)cc6)C(C)(C)[C@@H]5CC[C@]43C)[C@@H]12	inactive	5.82	75	–	–
CCN(C)C(=O)O[C@@H]1CC[C@]2(C)[C@H]3CC[C@@H]4[C@H]5[C@H](C(C)C)CC[C@]5(C(=O)O)CC[C@@]4(C)[C@]3(C)CC[C@H]2C1(C)C	inactive	6.68	92	–	–
CC(C)[C@@H]1CC[C@]2(C(=O)O)CC[C@]3(C)[C@H](CC[C@@H]4[C@@]5(C)CC[C@@H](OC(=O)NC6CCCC6)C(C)(C)[C@@H]5CC[C@]43C)[C@@H]12	inactive	7.53	92	–	–
C[C@@H](O)[C@@H]1CC[C@]2(C(=O)O)CC[C@]3(C)[C@H](CC[C@@H]4[C@@]5(C)CC[C@@H](OC(=O)NC6CC6)C(C)(C)[C@@H]5CC[C@]43C)[C@@H]12	inactive	7.42	99	–	–
CC1(C)[C@H](OC(=O)NC2CC2)CC[C@]2(C)[C@H]3CC[C@@H]4[C@H]5[C@H]([C@@]6(C)CO6)CC[C@]5(C(=O)O)CC[C@@]4(C)[C@]3(C)CC[C@@H]12	inactive	7.73	99	–	–
CC(C)[C@@H]1CC[C@]2(C(=O)O)CC[C@]3(C)[C@H](CC[C@@H]4[C@@]5(C)CC[C@@H](OC(=O)N6CCOCC6)C(C)(C)[C@@H]5CC[C@]43C)[C@@H]12	inactive	6.34	95	–	–
CO/N=C(/C)[C@@H]1CC[C@]2(C(=O)O)CC[C@]3(C)[C@H](CC[C@@H]4[C@@]5(C)CC[C@@H](OC(=O)NC6CC6)C(C)(C)[C@@H]5CC[C@]43C)[C@@H]12	inactive	6.88	97	–	–
CC(C)NC(=O)O[C@@H]1CC[C@]2(C)[C@H]3CC[C@@H]4[C@H]5[C@H](C(C)C)CC[C@]5(C(=O)O)CC[C@@]4(C)[C@]3(C)CC[C@H]2C1(C)C	inactive	6.91	97	–	–
CCOC(=O)O[C@@H]1CC[C@]2(C)[C@H]3CC[C@@H]4[C@H]5[C@H](C(C)C)CC[C@]5(C(=O)O)CC[C@@]4(C)[C@]3(C)CC[C@H]2C1(C)C	inactive	7.10	92	–	–
CC(C)[C@@H]1CC[C@]2(C(=O)O)CC[C@]3(C)[C@H](CC[C@@H]4[C@@]5(C)CC[C@@H](OC(=O)CO)C(C)(C)[C@@H]5CC[C@]43C)[C@@H]12	inactive	7.57	100	–	–
CC(C)[C@@H]1CC[C@]2(C(=O)O)CC[C@]3(C)[C@H](CC[C@@H]4[C@@]5(C)CC[C@@H](OC(N)=O)C(C)(C)[C@@H]5CC[C@]43C)[C@@H]12	inactive	7.51	100	–	–
CC(C)[C@@H]1CC[C@]2(N)CC[C@]3(C)[C@H](CC[C@@H]4[C@@]5(C)CC[C@@H](OC(=O)NC6CC6)C(C)(C)[C@@H]5CC[C@]43C)[C@@H]12	inactive	6.06	97	–	–
CCNC(=O)O[C@@H]1CC[C@]2(C)[C@H]3CC[C@@H]4[C@H]5[C@H](C(C)C)CC[C@]5(C(=O)O)CC[C@@]4(C)[C@]3(C)CC[C@H]2C1(C)C	inactive	7.88	100	–	–
COCC(=O)O[C@@H]1CC[C@]2(C)[C@H]3CC[C@@H]4[C@H]5[C@H](C(C)C)CC[C@]5(C(=O)O)CC[C@@]4(C)[C@]3(C)CC[C@H]2C1(C)C	inactive	7.60	100	–	–
CCNS(=O)(=O)O[C@@H]1CC[C@]2(C)[C@H]3CC[C@@H]4[C@H]5[C@H](C(C)C)CC[C@]5(C(=O)O)CC[C@@]4(C)[C@]3(C)CC[C@H]2C1(C)C	inactive	7.16	98	–	–
CNC(=O)O[C@@H]1CC[C@]2(C)[C@H]3CC[C@@H]4[C@H]5[C@H](C(C)C)CC[C@]5(C(=O)O)CC[C@@]4(C)[C@]3(C)CC[C@H]2C1(C)C	inactive	7.75	98	–	–
CNS(=O)(=O)O[C@@H]1CC[C@]2(C)[C@H]3CC[C@@H]4[C@H]5[C@H](C(C)C)CC[C@]5(C(=O)O)CC[C@@]4(C)[C@]3(C)CC[C@H]2C1(C)C	inactive	7.34	99	–	–
CC(C)[C@@H]1CC[C@]2(C(=O)O)CC[C@]3(C)[C@H](CC[C@@H]4[C@@]5(C)CC[C@@H](OC(=O)NC6CCC6)C(C)(C)[C@@H]5CC[C@]43C)[C@@H]12	inactive	7.57	92	–	–
CC(C)[C@@H]1CC[C@]2(C(=O)O)CC[C@]3(C)[C@H](CC[C@@H]4[C@@]5(C)CC[C@@H](OC(=O)NC6CC6)C(C)(C)[C@@H]5CC[C@]43C)[C@@H]12	inactive	8.00	99	–	–
CC(=O)[C@@H]1CC[C@]2(C(=O)O)CC[C@]3(C)[C@H](CC[C@@H]4[C@@]5(C)CC[C@@H](OC(=O)NC6CC6)C(C)(C)[C@@H]5CC[C@]43C)[C@@H]12	inactive	7.88	100	–	–
C[C@H](CCC(=O)O)[C@H]1CC[C@H]2[C@@H]3CC[C@@H]4C[C@H](O)CC[C@]4(C)[C@H]3CC[C@]12C	–	–	–	Active	Active
CCCNC(=O)O[C@@H]1CC[C@]2(C)[C@H]3CC[C@@H]4[C@H]5[C@H](C(C)C)CC[C@]5(C(=O)O)CC[C@@]4(C)[C@]3(C)CC[C@H]2C1(C)C	inactive	7.57	96	–	–
CC(C)[C@@H]1CC[C@]2(NC(=O)NCC(=O)O)CC[C@]3(C)[C@H](CC[C@@H]4[C@@]5(C)CC[C@@H](OC(=O)NC6CC6)C(C)(C)[C@@H]5CC[C@]43C)[C@@H]12	inactive	6.76	99	–	–
CCCS(=O)(=O)O[C@@H]1CC[C@]2(C)[C@H]3CC[C@@H]4[C@H]5[C@H](C(C)C)CC[C@]5(C(=O)O)CC[C@@]4(C)[C@]3(C)CC[C@H]2C1(C)C	inactive	7.11	98	–	–
CC(C)[C@@H]1CC[C@]2(C(=O)OCC(=O)O)CC[C@]3(C)[C@H](CC[C@@H]4[C@@]5(C)CC[C@@H](OC(=O)NC6CC6)C(C)(C)[C@@H]5CC[C@]43C)[C@@H]12	inactive	6.51	98	–	–
CC(C)[C@@H]1CC[C@]2(C(=O)NCC(=O)O)CC[C@]3(C)[C@H](CC[C@@H]4[C@@]5(C)CC[C@@H](OC(=O)NC6CC6)C(C)(C)[C@@H]5CC[C@]43C)[C@@H]12	inactive	6.42	96	–	–
